# Measured values: a melting point compilation (Tetko et al.; mined from patent text by program, amines drawn as free bases though some values may be those of a salt)
row,melting point [°C],Compound
1,234 to 235,Cc1ccccc1N1CCN(CC(O)c2ccc(N3CCCNC3=O)cc2)CC1 (configuration not stated)
2,155 to 156,CNC(=O)c1cccc(NC(=O)Cc2ccc(F)cc2)c1
3,101 to 103,CC(=O)N1CC(CCN2CCC(c3ccccc3)CC2)c2cc3c(cc21)OCO3 (configuration not stated)
4,175 to 180,CC1(CCCOc2ccc([N+](=O)[O-])c(C=C3NC(=O)NC3=O)c2)OCCO1
5,156 to 157,CC(=O)OC1OCC[C@@H]1NC(=O)[C@H](Cc1ccccc1)NC(=O)OC(C)(C)C (some centres not stated)
6,60 to 61,COC(=O)/C=C(\Oc1ccc(F)cc1)C(=O)OC
7,224 to 226,CCOC(=O)c1[nH]c2ccc(Cl)c(F)c2c1S(=O)(=O)c1cc(C)cc(C)c1
8,130 to 135,CC(C)c1cccc(-c2ccc(C(=O)NO)nc2)c1
9,135 to 137,Cc1noc2ccc(Oc3ncccc3C(=O)NCC3CCC(C(C)(C)O)CC3)cc12 (configuration not stated)
10,102 to 104,CCCCc1cc2ccc(C(=O)O)cc2o1
11,173 to 175,CC(CCCC(C)(C)O)C1CCC2C3=CC=C4CC(O)C5OC5C4(C)C3CCC21C (configuration not stated)
12,164 to 166,O=C1C(=Cn2ccnc2)c2ccccc2N1c1cccc(Cl)c1
13,144 to 145,COc1ccc(-c2cc(=O)c3ccc(OCC(O)CNC(C)C)cc3o2)cc1OC (configuration not stated)
14,170 to 172,CCOC(=O)C(C(=O)OCC)=C1NC(=O)N(c2ccc([N+](=O)[O-])cc2OC)C1=O
15,153 to 154,NC(=O)c1cccc(-c2cccc3cc(Cc4cccc(C(F)(F)F)c4)sc23)c1
16,199 to 201,CCOC1(OCC)OC(C)=C(C(=O)Nc2ccc(Cl)cc2)[C@@H](NC(C)=O)[C@@H]1C (relative stereo)
17,145 to 150,O=c1c2ccccc2n(CCCCN2CCC(OC(c3ccccc3)c3ccccc3)CC2)c(=O)n1CCO
18,83 to 85,CCCCOC(=O)c1ccc(N(C)C=Nc2ccc(C(=O)OCC)cc2)cc1
19,159 to 162,O=C(O)c1ccc(NCCCOc2ccccc2)cc1
20,201,O=P(O)(O)C(O)(CCc1ccc(Cl)cc1)P(=O)(O)O
21,159 to 161,COc1ccc(N2CCN(c3c(C)c(C)c4c(c3C)C(O)C(C)(C)O4)CC2)cc1 (configuration not stated)
22,84 to 85,COC(=O)c1ccc([C@H]2CC[C@H](C=O)CC2)cc1
23,109 to 112,CCCS(=O)c1ccc(N)c([N+](=O)[O-])c1 (configuration not stated)
24,224 to 226,CC1c2ccccc2COc2ccc(C(=O)O)cc21 (configuration not stated)

row,melting point [°C],Compound
1,157 to 158,CCn1ncc2c(NCCc3ccccc3)c3ccccc3nc21
2,179 to 180,CCOC(=O)N1CCC(n2cnc3ccc(-c4nnc(C)o4)cc32)CC1
3,216 to 217,CC(C(=O)O)c1ccc2c(c1)C(=O)Cc1cc(O)ccc1S2 (configuration not stated)
4,134 to 136,Clc1ncc(-c2ccco2)cn1
5,273 to 274,CCc1nc(-c2cccc(C(=O)O)c2)c(-c2ccnc(N)c2)s1
6,207 to 210,CC(C)c1cccc(C(C)C)c1NC(=O)C(Br)c1ccccc1 (configuration not stated)
7,203 to 205,FC(F)(F)c1ccc(/C=C/C2=CCN(Cc3c[nH]c4ncccc34)CC2)cc1
8,50 to 56,Cc1cc(-c2cccc(C(=O)CC(=O)OC(C)(C)C)c2)on1
9,107 to 108,CCCCCCC[C@H]1CC[C@H](COc2ccc(O)cc2)CC1
10,251 to 254,CCCCc1oc2ccccc2c1-c1ncc(-c2ccc3cc(OCc4ccc(C(=O)O)cc4)ccc3c2)o1
11,226 to 227,Cc1nc2c(OCc3c(Cl)ccc(N(C)C(=O)CN4C(=O)c5ccccc5C4=O)c3Cl)cccc2n1C
12,147 to 149,CCOP(=O)(OCC)/C(O)=C/c1cn(-c2ccccc2)nc1OCc1ccc(OCc2nc(-c3ccco3)oc2C)c(OC)c1
13,91 to 95,COc1cc(N)c(Cl)cc1C(=O)NCC1CCN(CCCCCCOCc2ccccc2)CC1
14,207 to 209,CC1CN(c2nc3ccccc3s2)N=C1N (configuration not stated)
15,159,Cc1ccc2[nH]c(CO)cc2c1C
16,125 to 129,O=C(Oc1ccccn1)c1cc2cc(CCl)ccc2oc1=O
17,163 to 166,COc1ccc(N)cc1C(=O)O
18,123 to 124,O=C(O)CCc1ccc(OCc2ccccc2)cc1
19,106 to 109,COC(=O)C1Cc2c([nH]c3ccccc23)C(c2ccc(Cl)cc2Cl)N1C(=O)CCl (configuration not stated)
20,124 to 126,COc1cc(NC(=O)OC(C)(C)C)cc(OC)c1SC
21,194 to 196,CC[C@H](C)[C@H](OCc1ccccc1)[C@H]1[C@H]([N+](=O)[O-])[C@H](C2CCCCC2)N[C@@H]1C(=O)O
22,124 to 125,CCOc1nn(C)c(C(F)(F)F)c1CS(=O)(=O)C1=NOC(C)(C)C1
23,235 to 237,CCCCc1oc2ccccc2c1-c1ncc(-c2ccc3c(Br)c(OCc4nnn[nH]4)ccc3c2)o1
24,121 to 123,COc1cc(C(=O)N(C(C)C)C2CCCCC2)ccc1Cn1c(-c2ccccc2Cl)nc2cccnc21

row,melting point [°C],Compound
1,125 to 128,CCCCNC(=O)c1cccc(NC(=O)NS(=O)(=O)c2ccc(C)cc2)c1
2,153 to 155,CNS(=O)(=O)c1cc2c(cc1CC(=O)O)CCCC2
3,99 to 100,CCCCCCCCCCC(O)C(O)CCC(O)C1CCC(=O)O1 (configuration not stated)
4,158 to 160,O=C(CCCl)Nc1ccc2[nH]ncc2c1
5,266 to 270,Oc1cc2c3ccc(O)c(O)c3n(Cc3ccc(C(F)(F)F)cc3)c2cc1O
6,95 to 99,COC(=O)C(=O)c1ccc(OCCOc2ccc3c(c2)CCCC3)cc1
7,76 to 77,CC(C)OCC1(C(F)(F)F)c2cc(C#N)ccc2Nc2ncc(Br)cc21 (configuration not stated)
8,121 to 123,Cc1cccc2c1NC(=O)C(CCCN1CCN(c3ccccc3F)CC1)S2 (configuration not stated)
9,116 to 118,CC(=O)OCC(C)C1=CCC2C3CC=C4CC(OC(C)=O)CC(OC(C)=O)C4(C)C3CCC12C (configuration not stated)
10,57 to 58,c1cc2c(cc1-c1nnc(SCC3CC3)o1)CCO2
11,249 to 251,COc1cc2nc(N3CCc4c(cccc4C(=N)N4CCOCC4)C3)[nH]c(=O)c2cc1OC
12,173 to 174,CCOC(=O)c1c(C)nn2ccc3c(c12)CCO3
13,192 to 193,Cc1ccc(C(=O)N[C@H](C)C(N)=O)cc1-n1c(C)cc(OCc2ccccc2CNC(=O)Nc2cc(C(C)(C)C)nn2-c2ccc(O)c(Cl)c2)c(Cl)c1=O
14,138 to 140,COc1cc2c(cc1OC)CN(CCCc1cccc(NC(=O)c3cccc4c(=O)c5cccc(OC)c5[nH]c34)c1)CC2
15,189 to 190,O=C(c1cccc2nc3n(c12)CCCN3c1ccc(Cl)cc1Cl)C1CC1
16,129 to 130,Cc1cc(C2CCCCC2)ccc1C(=O)O
17,52.5 to 54,c1ccc(C2=N[C@@H](CCP(c3ccccc3)c3ccccc3)CO2)cc1
18,75 to 79,CC(C)Oc1ccccc1OCCCN1CCC(C(O)(c2ccc(F)cc2)c2ccc(F)cc2)CC1
19,127 to 129,CNC(=O)c1cc2nc(C(F)(F)F)ccc2cc1NC(=O)c1cc(Br)nn1-c1ncccc1Cl
20,269 to 270,COc1cc2nc(N3CCN(c4ccc(Cl)nn4)CC3)nc(N)c2cc1OC
21,176 to 178,O=C(CCC(=O)Oc1ccc([N+](=O)[O-])cc1)Oc1ccc([N+](=O)[O-])cc1
22,233 to 235,CCOC(=O)c1ccc(-c2cc(-c3ccc4c(c3)C(C)(C)CCC4(C)C)ccc2-c2ccccc2)cc1
23,147 to 148,Cc1cnc(C2=NC(C)(C(C)C)C(=O)N2)c(C(O)c2ccc(C)s2)c1 (configuration not stated)
24,177 to 179,CC(C)c1c(I)sc2ncc(C#N)c(Cl)c12

row,melting point [°C],Compound
1,117 to 118,CC(C)Cn1c(N(C)C(=O)OC(C)(C)C)c(OCCCC(F)(F)F)c2cc(OCc3ccccc3)ccc2c1=O
2,172 to 173,Cc1ccccc1S(=O)(=O)OC1C2C(C(=O)N1Cc1ccc3c(c1)OCO3)C(c1ccc(Br)cc1)N(C)C2(C)C (configuration not stated)
3,184 to 186,NC(=O)CNC(=O)c1cccc(-c2ccc3c(c2)N(c2ccc(Cl)cc2Cl)CC3)c1
4,126 to 127,CCOC(=O)C=Cc1ccn(C)c(=O)c1
5,178 to 179,COc1cc(NC(NC(C)C(C)(C)C)=C(C#N)S(=O)(=O)c2ccc(Cl)cc2)cc(OC)c1 (configuration not stated)
6,135 to 138,COc1cc(S(C)(=O)=O)ccc1OCc1ccc(C2CCN(C(=O)OC(C)(C)C)CC2)cn1
7,97.2,[O-][N+](=CCCc1ccccc1)C1CCCCC1
8,136 to 138,O=c1c2cc(F)c(N3CCCC3)nc2n(-c2cccc(C(F)(F)F)c2)c(=O)n1O
9,151 to 156,CC(C)OC(=O)N1CCC(c2ccc3oc(-c4ccc(S(C)(=O)=O)cc4F)nc3c2)CC1
10,> 280,N#CCC(=O)Nc1ccc(-c2ncc(C(=O)O)c(O)n2)cc1
11,59 to 60,CCCCCCS(=O)c1c(O)cc(C)oc1=O (configuration not stated)
12,287 to 288,COC(=O)c1ccc(N2C(=O)C(O)=C(C(=O)c3ccc(C)cc3)C2c2ccc(C(C)(C)C)cc2)nc1 (configuration not stated)
13,115 to 117,CC1CC(=O)N(CCCCN2CCN(c3ncccn3)CC2)S(=O)(=O)N1 (configuration not stated)
14,131 to 132,COc1ccccc1N1CCN(C(=O)N(C)c2cc(C)c(C)nc2OC)CC1
15,224 to 225,CN1C(=O)C(C)(C)C(=O)N(C)c2cc([N+](=O)[O-])ccc21
16,220,N=C(N=C1NC(=O)C(=O)N1c1ccc(Cl)c(Cl)c1)Nc1ccc(Cl)c(Cl)c1
17,131 to 134,COc1cc2c(c(OC)c1)C1CCC3(C)C(OC(C)=O)CCC3C1CC2 (configuration not stated)
18,264 to 266,CCOC(=O)c1c(Cn2cncn2)nc2cc(OC)c(O)cc2c1-c1ccc(O)c(O)c1
19,60 to 61,Fc1cc(Cc2cccs2)c(Cl)cc1Cl
20,195 to 196,Cc1cccc(Nc2cc(-c3c(-c4cccc(C)c4)nc4cccnn34)ccn2)c1
21,> 300,Cc1nsc(-n2cc(C(=O)O)c(=O)c3cc(F)c(N4CCCC4)nc32)n1

row,Compound,melting point [°C]
1,NP(N)(=S)N1CCCCC1,97 to 102
2,CNC1CC=C(c2c[nH]c3ccc([N+](=O)[O-])cc23)CC1 (configuration not stated),208 to 210
3,CN1C(=O)CN=C(c2ccccc2F)c2cc(C#N)ccc21,177
4,CC(C)CCCOC1CCC2C3C(=O)C=C4CC(O)CCC4(C)C3CCC12C (configuration not stated),134
